# According to ChEMBL document CHEMBL1152288, “Characterization of thien-2-yl 1S,2R-milnacipran analogues as potent norepinephrine/serotonin transporter inhibitors for the treatment of neuropathic pain” (J Med Chem, 2008):
# Experiments:
# [1] = Drug excretion in human urine; assay type: ADME; conditions: read-out: Activity
# [2] = Partition coefficient, log P of the compound; assay type: physicochemical; conditions: octanol/water
# [3] = Oral bioavailability in human; assay type: ADME, organism-based; conditions: in vivo
# [4] = target: T1, Transporter (Rattus norvegicus, UniProt Q63380)
# T1 sequence (Q63380 whole entry): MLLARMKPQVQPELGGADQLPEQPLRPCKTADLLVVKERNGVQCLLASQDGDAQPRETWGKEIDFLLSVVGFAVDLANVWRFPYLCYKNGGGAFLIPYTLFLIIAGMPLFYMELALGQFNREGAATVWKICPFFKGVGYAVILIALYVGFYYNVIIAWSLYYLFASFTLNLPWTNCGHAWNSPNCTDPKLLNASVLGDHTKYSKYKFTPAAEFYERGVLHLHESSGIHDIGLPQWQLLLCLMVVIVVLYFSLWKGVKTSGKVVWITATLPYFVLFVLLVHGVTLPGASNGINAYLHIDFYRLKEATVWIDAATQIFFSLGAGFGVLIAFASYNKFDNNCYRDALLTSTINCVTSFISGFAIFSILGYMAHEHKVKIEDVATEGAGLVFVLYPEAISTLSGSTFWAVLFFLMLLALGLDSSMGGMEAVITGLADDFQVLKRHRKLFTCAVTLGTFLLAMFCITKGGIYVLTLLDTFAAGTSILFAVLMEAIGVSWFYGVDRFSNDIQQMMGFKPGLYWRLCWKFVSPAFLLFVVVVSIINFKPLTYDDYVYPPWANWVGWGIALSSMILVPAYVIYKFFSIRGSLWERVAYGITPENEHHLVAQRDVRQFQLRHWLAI
# Description: Inhibition of radiolabeled noradrenaline uptake from rat brain NET
# [5] = Metabolic stability in human liver microsomes assessed as systemic clearance at 1 uM after 15 mins by LC-MS/MS analysis; assay type: ADME, Microsome
# [6] = Lipophilicity, log D of the compound; assay type: physicochemical; conditions: octanol/water
# [7] = physchem
# Description: Dissociation constant, pKa of the compound
# [8] = Metabolic stability in rat liver microsomes assessed as systemic clearance at 1 uM after 15 mins by LC-MS/MS analysis; assay type: ADME, Microsome
# [9] = target: Sodium-dependent dopamine transporter (Rattus norvegicus, UniProt P23977); assay: biochemical
# Sodium-dependent dopamine transporter (Rattus norvegicus, UniProt P23977), sequence (P23977 whole entry): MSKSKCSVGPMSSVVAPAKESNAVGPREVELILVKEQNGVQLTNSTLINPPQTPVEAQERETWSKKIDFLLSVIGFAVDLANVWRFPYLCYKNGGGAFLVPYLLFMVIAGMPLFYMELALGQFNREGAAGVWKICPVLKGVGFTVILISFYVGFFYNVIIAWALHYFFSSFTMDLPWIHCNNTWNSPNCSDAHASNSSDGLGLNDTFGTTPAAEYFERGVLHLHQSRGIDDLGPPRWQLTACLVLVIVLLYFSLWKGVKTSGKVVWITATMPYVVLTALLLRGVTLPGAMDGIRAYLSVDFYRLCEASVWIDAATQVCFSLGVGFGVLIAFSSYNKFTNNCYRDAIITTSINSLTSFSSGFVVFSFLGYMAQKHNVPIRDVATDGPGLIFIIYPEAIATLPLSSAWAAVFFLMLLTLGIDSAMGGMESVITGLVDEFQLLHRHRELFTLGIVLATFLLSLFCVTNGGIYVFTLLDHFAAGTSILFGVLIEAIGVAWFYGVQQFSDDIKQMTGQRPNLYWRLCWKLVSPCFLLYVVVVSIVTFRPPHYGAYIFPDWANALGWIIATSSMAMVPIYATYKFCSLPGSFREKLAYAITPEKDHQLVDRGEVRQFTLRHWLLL
# Description: Displacement of 3,4-[ring-2,5,6-3H]dihydroxyphenylethylamine from rat synaptosomal DAT expressed in HEK293 cells by microplate scintillation counter
# [10] = target: T2, Sodium-dependent serotonin transporter (Rattus norvegicus, UniProt P31652); assay: Inhibition of radiolabeled serotonin uptake from rat brain SERT
# T2 sequence (P31652 whole entry): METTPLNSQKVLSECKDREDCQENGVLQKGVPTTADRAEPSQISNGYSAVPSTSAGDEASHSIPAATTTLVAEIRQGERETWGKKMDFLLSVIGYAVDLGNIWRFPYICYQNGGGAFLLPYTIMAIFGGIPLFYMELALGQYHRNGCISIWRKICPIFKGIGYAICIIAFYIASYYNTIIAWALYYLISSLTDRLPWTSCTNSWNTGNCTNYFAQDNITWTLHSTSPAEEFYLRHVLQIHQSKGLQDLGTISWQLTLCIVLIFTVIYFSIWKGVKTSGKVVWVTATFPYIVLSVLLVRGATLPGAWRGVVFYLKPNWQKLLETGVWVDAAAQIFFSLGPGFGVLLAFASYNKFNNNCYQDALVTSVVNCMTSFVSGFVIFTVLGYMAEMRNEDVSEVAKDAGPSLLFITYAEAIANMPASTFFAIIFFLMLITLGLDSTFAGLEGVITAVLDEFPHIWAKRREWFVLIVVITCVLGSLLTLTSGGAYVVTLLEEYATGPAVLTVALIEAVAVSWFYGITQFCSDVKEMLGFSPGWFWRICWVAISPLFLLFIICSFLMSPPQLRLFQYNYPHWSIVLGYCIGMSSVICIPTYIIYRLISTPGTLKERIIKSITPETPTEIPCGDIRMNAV
# [11] = target: T2, Sodium-dependent serotonin transporter; assay type: cell-based, HEK293
# [12] = test system: Rattus norvegicus; assay: Antinociceptive activity in CD rat assessed as reduction in number of hind paw flinching at 60 mg/kg, po by formalin test; assay type: functional; design: scale not given: the % may be the effect or the level left
# [13] = Apparent oral clearance in Sprague-Dawley rat at 30 mg/kg, po; assay type: ADME, organism-based; design: dose 30 mg/kg, route oral; conditions: in vivo
# [14] = target: Sodium-dependent serotonin transporter (Homo sapiens, UniProt P31645); assay: biochemical
# Sodium-dependent serotonin transporter (Homo sapiens, UniProt P31645), sequence (P31645 whole entry): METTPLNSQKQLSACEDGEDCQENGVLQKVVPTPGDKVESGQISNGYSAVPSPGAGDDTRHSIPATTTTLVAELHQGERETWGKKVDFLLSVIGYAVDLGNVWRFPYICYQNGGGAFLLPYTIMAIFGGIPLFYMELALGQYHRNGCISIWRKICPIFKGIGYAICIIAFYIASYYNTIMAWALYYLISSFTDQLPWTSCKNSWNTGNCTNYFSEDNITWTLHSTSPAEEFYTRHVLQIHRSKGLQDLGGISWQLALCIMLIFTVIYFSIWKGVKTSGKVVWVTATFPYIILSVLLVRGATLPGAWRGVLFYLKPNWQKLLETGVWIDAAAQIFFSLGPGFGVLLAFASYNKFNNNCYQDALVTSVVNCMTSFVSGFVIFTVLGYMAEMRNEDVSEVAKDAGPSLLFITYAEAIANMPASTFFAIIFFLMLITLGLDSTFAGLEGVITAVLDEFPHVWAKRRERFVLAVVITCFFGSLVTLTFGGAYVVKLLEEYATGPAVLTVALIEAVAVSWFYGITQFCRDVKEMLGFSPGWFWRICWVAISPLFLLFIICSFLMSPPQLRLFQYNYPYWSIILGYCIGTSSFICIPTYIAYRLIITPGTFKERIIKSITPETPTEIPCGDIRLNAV
# Description: Displacement of [alpha,beta-3H(N)]-5-hydroxytryptamine from human cloned SERT expressed in HEK293 cells by microplate scintillation counter
# [15] = Mean residence time in Sprague-Dawley rat at 5 mg/kg, iv; assay type: ADME, organism-based; design: dose 5 mg/kg, route intravenous; conditions: in vivo
# [16] = test system: Rattus norvegicus; assay: Reversal of pin-prick-induced neuropathic mechanical hyperalgesia in Harlan Sprague-Dawley rat sciatic nerve ligation model at 30 mg/kg, po; assay type: functional
# [17] = target: Sodium-dependent dopamine transporter (Homo sapiens, UniProt Q01959); assay: biochemical
# Sodium-dependent dopamine transporter (Homo sapiens, UniProt Q01959), sequence (Q01959 whole entry): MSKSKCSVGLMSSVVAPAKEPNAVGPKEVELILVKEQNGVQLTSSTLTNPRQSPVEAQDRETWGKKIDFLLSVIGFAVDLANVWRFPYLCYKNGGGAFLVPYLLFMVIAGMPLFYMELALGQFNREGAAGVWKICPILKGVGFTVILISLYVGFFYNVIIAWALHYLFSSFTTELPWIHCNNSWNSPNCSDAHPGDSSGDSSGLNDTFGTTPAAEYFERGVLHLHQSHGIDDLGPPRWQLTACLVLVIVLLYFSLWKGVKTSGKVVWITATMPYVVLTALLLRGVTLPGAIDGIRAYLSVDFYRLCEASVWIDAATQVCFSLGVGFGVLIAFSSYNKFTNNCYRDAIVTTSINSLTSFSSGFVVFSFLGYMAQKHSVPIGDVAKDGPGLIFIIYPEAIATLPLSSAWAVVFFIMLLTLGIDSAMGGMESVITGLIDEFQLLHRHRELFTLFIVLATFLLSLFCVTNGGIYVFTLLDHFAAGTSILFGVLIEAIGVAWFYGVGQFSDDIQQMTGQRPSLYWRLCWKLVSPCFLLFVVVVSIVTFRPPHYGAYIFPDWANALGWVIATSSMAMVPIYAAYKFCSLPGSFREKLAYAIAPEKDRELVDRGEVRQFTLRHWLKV
# Description: Displacement of 3,4-[ring-2,5,6-3H]dihydroxyphenylethylamine from human cloned DAT expressed in HEK293 cells by microplate scintillation counter
# [18] = Volume of distribution in Sprague-Dawley rat at 5 mg/kg, iv; assay type: ADME, organism-based; design: dose 5 mg/kg, route intravenous; conditions: in vivo
# [19] = Drug level in Sprague-Dawley rat brain at 30 mg/kg, po after 1 hr; assay type: ADME, organism-based; design: dose 30 mg/kg, route oral; conditions: read-out: Drug uptake
# [20] = AUC in Sprague-Dawley rat at 5 mg/kg, iv; assay type: ADME, organism-based; design: dose 5 mg/kg, route intravenous; conditions: plasma
# [21] = in vitro; conditions: human, Caco-2
# Description: Apparent permeability from apical to basolateral side of the human Caco-2 cells
# [22] = Apparent elimination half life in Sprague-Dawley rat at 30 mg/kg, po; assay type: ADME, organism-based; design: dose 30 mg/kg, route oral; conditions: in vivo, read-out: beta t1/2 (converted)
# [23] = target: T1, Transporter; assay: biochemical
# Description: Displacement of Levo[ring-2,5,6-3H]norepinephrine from rat synaptosomal NET expressed in HEK293 cells by microplate scintillation counter
# [24] = target: Cytochrome P450 2D6 (Homo sapiens, UniProt P10635); assay: Inhibition of CYP2D6; assay type: ADME
# Cytochrome P450 2D6, sequence (P10635 whole entry): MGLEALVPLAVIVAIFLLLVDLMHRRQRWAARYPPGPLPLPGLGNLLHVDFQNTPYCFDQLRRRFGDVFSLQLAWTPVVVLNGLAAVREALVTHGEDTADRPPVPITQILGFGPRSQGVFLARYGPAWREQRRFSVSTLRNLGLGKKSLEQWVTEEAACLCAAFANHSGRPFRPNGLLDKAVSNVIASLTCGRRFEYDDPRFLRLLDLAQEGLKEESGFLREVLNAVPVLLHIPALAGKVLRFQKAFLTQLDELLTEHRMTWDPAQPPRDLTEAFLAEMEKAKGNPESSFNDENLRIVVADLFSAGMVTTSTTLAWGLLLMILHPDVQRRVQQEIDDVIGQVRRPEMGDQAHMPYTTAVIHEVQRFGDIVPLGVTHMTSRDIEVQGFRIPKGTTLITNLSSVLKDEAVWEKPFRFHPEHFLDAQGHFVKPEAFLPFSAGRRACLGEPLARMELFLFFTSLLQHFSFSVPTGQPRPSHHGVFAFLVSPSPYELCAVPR
# [25] = Volume of distribution at steady state in Sprague-Dawley rat at 5 mg/kg, iv; assay type: ADME, organism-based; design: dose 5 mg/kg, route intravenous; conditions: in vivo, read-out: Vdss
# [26] = Half life in Sprague-Dawley rat at 5 mg/kg, iv; assay type: ADME, organism-based; design: dose 5 mg/kg, route intravenous; conditions: in vivo
# [27] = Ratio of drug level in brain to plasma in Sprague-Dawley rat at 30 mg/kg, po after 1 hr; assay type: ADME, organism-based; design: dose 30 mg/kg, route oral
# [28] = Drug level in Sprague-Dawley rat brain at 30 mg/kg, po after 4 hrs; assay type: ADME, organism-based; design: dose 30 mg/kg, route oral; conditions: read-out: Drug uptake
# [29] = Renal clearance in Sprague-Dawley rat at 5 mg/kg, iv; assay type: ADME, organism-based, Kidney; design: dose 5 mg/kg, route intravenous; conditions: in vivo, read-out: CL_renal
# [30] = target: Sodium-dependent noradrenaline transporter (Homo sapiens, UniProt P23975); assay: biochemical
# Sodium-dependent noradrenaline transporter, sequence (P23975 whole entry): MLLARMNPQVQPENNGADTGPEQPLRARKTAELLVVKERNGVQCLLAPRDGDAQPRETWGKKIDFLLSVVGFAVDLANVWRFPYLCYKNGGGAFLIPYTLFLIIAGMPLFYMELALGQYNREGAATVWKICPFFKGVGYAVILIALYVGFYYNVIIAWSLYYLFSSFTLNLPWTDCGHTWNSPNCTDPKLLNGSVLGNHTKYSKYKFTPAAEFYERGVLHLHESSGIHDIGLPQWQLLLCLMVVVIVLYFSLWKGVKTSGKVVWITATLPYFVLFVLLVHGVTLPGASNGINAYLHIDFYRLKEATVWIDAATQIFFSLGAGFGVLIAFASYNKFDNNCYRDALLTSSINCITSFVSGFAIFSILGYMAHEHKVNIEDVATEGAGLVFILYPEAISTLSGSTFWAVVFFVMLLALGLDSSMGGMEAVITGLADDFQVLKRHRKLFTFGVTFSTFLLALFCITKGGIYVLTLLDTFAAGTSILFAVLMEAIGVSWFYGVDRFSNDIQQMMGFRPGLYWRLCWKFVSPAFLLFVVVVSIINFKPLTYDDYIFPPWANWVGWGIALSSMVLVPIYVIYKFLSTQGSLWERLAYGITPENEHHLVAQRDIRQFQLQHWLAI
# Description: Displacement of Levo[ring-2,5,6-3H]norepinephrine from human cloned NET expressed in HEK293 cells by microplate scintillation counter
# [31] = Tmax in Sprague-Dawley rat at 30 mg/kg, po; assay type: ADME, organism-based; design: dose 30 mg/kg, route oral; conditions: in vivo
# [32] = Bioavailability in Sprague-Dawley rat at 5 mg/kg, iv; assay type: ADME, organism-based; conditions: in vivo
# [33] = Plasma clearance in Sprague-Dawley rat at 5 mg/kg, iv; assay type: ADME, organism-based; design: dose 5 mg/kg, route intravenous
# [34] = Cmax in Sprague-Dawley rat at 30 mg/kg, po; assay type: ADME, organism-based; design: dose 30 mg/kg, route oral; conditions: in vivo
# [35] = Ratio of drug level in brain to plasma in Sprague-Dawley rat at 30 mg/kg, po after 4 hrs; assay type: ADME, organism-based; design: dose 30 mg/kg, route oral
# [36] = AUC in Sprague-Dawley rat at 30 mg/kg, po; assay type: ADME, organism-based; design: dose 30 mg/kg, route oral; conditions: plasma
# [37] = test system: Rattus norvegicus; assay: AUC in Fischer 344 rat at 50 mg/kg, po; assay type: ADME, organism-based, Plasma; design: dose 50 mg/kg, route oral; conditions: in vivo
# [38] = Cmax in Fischer 344 rat at 50 mg/kg, po; assay type: ADME, organism-based; design: dose 50 mg/kg, route oral; conditions: in vivo
# [39] = Apparent elimination half life in Fischer 344 rat at 50 mg/kg, po; assay type: ADME, organism-based; design: dose 50 mg/kg, route oral; conditions: in vivo, read-out: beta t1/2 (converted)
# [40] = Tmax in Fischer 344 rat at 50 mg/kg, po; assay type: ADME, organism-based; design: dose 50 mg/kg, route oral; conditions: in vivo
# [41] = test system: Rattus norvegicus; assay: Oral bioavailability in Fischer 344 rat at 50 mg/kg; assay type: ADME, organism-based; conditions: in vivo
smiles,measurement,setting,value
CCN(CC)C(=O)C1(c2ccccc2)CC1CN (centres undefined),dose excreted,[1],> 80%
same,logP,[2],1.7
same,bioavailability,[3],85%
same,IC50,[4],100 nM
same,CLhep predicted at 1 µM,[5],3.1 mL/min/kg
same,logD,[6],0.2
same,pKa,[7],9.5
same,CLhep predicted at 1 µM,[8],24 mL/min/kg
same,IC50,[9],37000 nM
same,IC50,[10],203 nM
same,IC50,[11],47 nM
C=CCN(CC=C)C(=O)[C@@]1(c2cccs2)C[C@H]1CN,logP,[2],2
same,Activity,[12],56%
same,CL/F,[13],444 mL/min/kg
same,IC50,[14],32 nM
same,MRT,[15],42 min
same,Activity,[16],60%
same,IC50,[17],> 10000 nM
same,Vd,[18],5.3 L/kg
same,concentration at 1 h,[19],127 ng/g
same,CLhep predicted at 1 µM,[5],9.9 mL/min/kg
same,AUC,[20],721 ng·h/mL
same,logD,[6],0.3
same,Papp A→B,[21],16.7 ×10⁻⁶ cm/s
same,pKa,[7],9.4
same,half-life,[22],72 min
same,IC50,[23],4.6 nM
same,CLhep predicted at 1 µM,[8],61 mL/min/kg
same,IC50,[24],6000 nM
same,Vd,[25],4.4 L/kg
same,IC50,[9],19000 nM
same,half-life,[26],36 min
same,Kp at 1 h,[27],0.6
same,concentration at 4 h,[28],26 ng/g
same,CL renal,[29],11 mL/min/kg
same,IC50,[30],2.3 nM
same,Tmax,[31],30 min
same,bioavailability,[32],12%
same,clearance,[33],102 mL/min/kg
same,Cmax,[34],522 ng/mL
same,Kp at 4 h,[35],1.4
same,AUC,[36],1130 ng·h/mL
same,IC50,[11],11 nM
CNCC[C@@H](Oc1ccccc1C)c1ccccc1 [ATOMOXETINE],Papp A→B,[21],43.7 ×10⁻⁶ cm/s
same,AUC,[37],910 ng·h/mL
same,Cmax,[38],170 ng/mL
same,half-life,[39],168 min
same,Tmax,[40],120 min
same,F,[41],1.5%
